Experimental data taken from article PMC3923778 (PLoS Currents, 2014).
Entries after “also recorded” stand apart in the source; their conditions may differ.

Key:
[1] = target: T1, PDE1B (Homo sapiens, UniProt Q01064); assay: Cerep diversity panel screen at 10 µM; assay type: biochemical
T1 construct: Cerep (contract laboratory)
Experimental: (§1) Studies were conducted at Cerep (France)

[2] = target: T2, PDE2A (Homo sapiens, UniProt O00408); assay: Cerep diversity panel screen at 10 µM; assay type: biochemical
T2 construct: Cerep (contract laboratory)
Experimental: as §1

[3] = tested on: R6/2 mice; assay: Acute and subchronic (2 weeks) tolerability evaluation in R6/2 mice; assay type: in vivo; conditions: R6/2 mice starting at 6 weeks of age, all doses administered
From the text: Prior to chronic dosing, we conducted an acute and subchronic (2 weeks) tolerability evaluation in R6/2 mice starting at 6 weeks of age (studies conducted at Psychogenics, USA; see Supplementary Report 1 for full details).

[4] = tested on: R6/2 mice; assay: Grip Strength; assay type: in vivo, mouse; set-up: key to Grip Strength: direction of significant change vs Vehicle-treated R6/2 mice: ▲: significant enhancement compared to Vehicle-treated R6/2 mice (One-way ANOVA, Dunnett’s post-hoc); ▼: significant impairment compared to Vehicle-treated R6/2 mice (One-way ANOVA, Dunnett’s post-hoc)
Experimental: (§2) Motor function testing including open field and rear climbing tests were commenced at 4 weeks of age and continued at weeks 6, 8 and 12, for grip strength test at age weeks 4 and 12 and for rotarod at age weeks 4, 6 and 8. Compound treatment was started at 4 weeks of age after the baseline behavioral tests.
Grip strength measurement was performed at age weeks 4 and 12. The mice were tested on Monday afternoons. Mice were taken to the experimental room and, one at a time, were placed on the grip-strength apparatus (San Diego Instruments, San Diego, USA) in such a way that the animal grabs a small mesh grip with its forepaws. The entire apparatus is placed on a table top for testing. Animals are lowered to the platform and then slowly pulled away from the handle by the tail until the animal releases the handle. The equipment automatically measures the strength of the animal’s grip in grams. Five scores were recorded per animal in consecutive sequence. Mice were returned to their home cage after testing.
(§3) All values are presented as mean ± Standard Error of Mean (SEM), and differences are considered to be statistically significant at the p < 0.05 level. Statistical analysis was performed using StatsDirect statistical software. Differences between group means were analyzed by 1-way-ANOVA followed by Dunnett’s test (comparison to the control (=vehicle treated TG mice) group). The acquisition of the Cued two-choice swim test was analyzed using Fisher’s exact test.

[5] = tested on: R6/2 mice; assay: Open Field Test; assay type: in vivo, mouse; set-up: key to Open Field Total Distance: direction of significant change vs Vehicle-treated R6/2 mice / Open Field Center Distance: direction of significant change vs Vehicle-treated R6/2 mice: ▲: significant enhancement compared to Vehicle-treated R6/2 mice (One-way ANOVA, Dunnett’s post-hoc); ▼: significant impairment compared to Vehicle-treated R6/2 mice (One-way ANOVA, Dunnett’s post-hoc)
Experimental: as §2
Open field test was performed at age weeks 4, 6, 8 and 12. The mice were tested on Mondays at approximately 10-30 lux of red light. The mice were brought to the experimental room for at least 1 h acclimation to the experimental room conditions prior to testing. Activity chambers (Med Associates Inc., St Albans, VT; 27 x 27 x 20.3 cm) are equipped with IR beams. Mice were placed in the center of the chamber and their behavior was recorded for 30 min in 5-minute bins. Quantitative analysis was performed on the following five dependent measures: total locomotion, locomotion in the center of the open field, rearing rate in the center, total rearing frequency and velocity.
as §3

[6] = tested on: R6/2 mice; assay: Chronic oral dosing in the R6/2 mouse model, overall disease progression; assay type: in vivo; conditions: chronic oral administration, 10 or 30 mg/kg BID p.o. from 4 weeks
Experimental: All animal experiments were carried out according to the National Institute of Health (NIH) guidelines for the care and use of laboratory animals, and approved by the National Laboratory Animal Board, Finland. 60 male and female R6/2 TG mice (R6/2J CAG 120 and 12 male and female wild-type littermate control mice were bred at National Animal Facility Center, Kuopio, Finland.
Mice were housed in groups of 4 and separated by sexes. In each cage, one wild-type mouse of the same sex, but different litter, was included in an attempt to provide normal social stimulation. Mice were allowed to acclimate to the experimental room for at least one hour prior to the beginning of any experiment. Mice were transported from the colony room to experimental rooms in their home cages. Experimentation was conducted in a blinded manner. Tail samples were taken at the end of the study for verification of genotypes and CAG sizes of individual mice.
as §3

[7] = tested on: PDE1; set-up: method as in PMID 9216839, PMID 17697115, PMID 8961086, PMID 7581878; conditions: ref [12], [23], [27], [28], read-out: reported IC50; cited from earlier work
[8] = tested on: PDE9; set-up: method as in PMID 9216839, PMID 17697115, PMID 10618442, PMID 8961086, PMID 7581878; conditions: ref [12], [23], [25], [27], [28], read-out: previously reported potencies; cited from earlier work
[9] = Age Week 4, 10 mg/kg p.o., BID, ANOVA
[10] = Age Week 4, 30 mg/kg p.o., BID, ANOVA
[11] = Age Week 12, 10 mg/kg p.o., BID
[12] = Age Week 12, 30 mg/kg p.o., BID
[13] = Age Week 6, 10 mg/kg p.o., BID, ANOVA
[14] = Age Week 6, 30 mg/kg p.o., BID, ANOVA
[15] = Age Week 8, 10 mg/kg p.o., BID, ANOVA
[16] = Age Week 8, 30 mg/kg p.o., BID, ANOVA
[17] = Age Week 12, 10 mg/kg p.o., BID, ANOVA
[18] = Age Week 12, 30 mg/kg p.o., BID, ANOVA

T1 sequence (Q01064 whole entry, species assumed): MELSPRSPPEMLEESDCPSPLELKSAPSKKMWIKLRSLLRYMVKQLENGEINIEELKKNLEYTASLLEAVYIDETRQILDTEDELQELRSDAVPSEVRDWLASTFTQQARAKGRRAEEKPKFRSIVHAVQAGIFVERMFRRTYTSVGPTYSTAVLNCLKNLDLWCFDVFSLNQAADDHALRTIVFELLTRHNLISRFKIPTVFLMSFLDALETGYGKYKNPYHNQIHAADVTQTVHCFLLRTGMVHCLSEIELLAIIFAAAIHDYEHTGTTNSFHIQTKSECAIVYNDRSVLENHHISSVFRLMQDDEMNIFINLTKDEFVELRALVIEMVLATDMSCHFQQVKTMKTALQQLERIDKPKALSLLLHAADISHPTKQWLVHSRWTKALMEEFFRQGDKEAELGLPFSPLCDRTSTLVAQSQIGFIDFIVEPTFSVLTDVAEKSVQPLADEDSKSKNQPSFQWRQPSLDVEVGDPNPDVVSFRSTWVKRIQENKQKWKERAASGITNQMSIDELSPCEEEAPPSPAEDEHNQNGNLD
T2 sequence (O00408 whole entry, species assumed): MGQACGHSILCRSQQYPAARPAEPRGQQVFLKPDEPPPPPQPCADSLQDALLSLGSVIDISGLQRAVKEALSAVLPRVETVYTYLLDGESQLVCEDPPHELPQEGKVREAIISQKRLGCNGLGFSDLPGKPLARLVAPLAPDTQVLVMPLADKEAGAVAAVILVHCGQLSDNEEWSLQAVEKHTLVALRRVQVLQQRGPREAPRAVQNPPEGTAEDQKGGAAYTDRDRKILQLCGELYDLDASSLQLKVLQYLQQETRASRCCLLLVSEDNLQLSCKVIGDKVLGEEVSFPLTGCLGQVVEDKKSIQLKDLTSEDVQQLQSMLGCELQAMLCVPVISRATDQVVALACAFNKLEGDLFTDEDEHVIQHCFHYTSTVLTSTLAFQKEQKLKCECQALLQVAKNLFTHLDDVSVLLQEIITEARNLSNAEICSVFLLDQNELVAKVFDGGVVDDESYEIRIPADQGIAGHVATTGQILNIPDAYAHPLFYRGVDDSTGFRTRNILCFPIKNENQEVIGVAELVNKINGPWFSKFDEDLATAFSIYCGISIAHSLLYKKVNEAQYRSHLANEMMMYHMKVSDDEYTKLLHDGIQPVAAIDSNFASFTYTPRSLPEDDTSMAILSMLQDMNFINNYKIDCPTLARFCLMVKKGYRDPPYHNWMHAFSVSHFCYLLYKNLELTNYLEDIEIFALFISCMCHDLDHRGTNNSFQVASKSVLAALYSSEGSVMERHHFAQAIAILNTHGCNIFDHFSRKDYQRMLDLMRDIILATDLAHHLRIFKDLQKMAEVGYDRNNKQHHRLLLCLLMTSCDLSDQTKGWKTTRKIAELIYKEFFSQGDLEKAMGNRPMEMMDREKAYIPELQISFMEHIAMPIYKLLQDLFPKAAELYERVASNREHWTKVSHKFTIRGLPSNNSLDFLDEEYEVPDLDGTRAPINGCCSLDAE

In the case of `CN1C(=O)c2nc(Cc3ccc(C(F)(F)F)cc3)[nH]c2N2C1=N[C@H]1CCC[C@H]12` [SCH-51866, (+)-cis-5,6a,7,8,9,9a-hexahydro-2-[4-[trifluro-methyl]phenylmethyl]-5-methyl-cylopent[4,5]imidazo [2,1-b]purin-4(3H)one], the inhibition at 10 µM [1] is reported as 100%, the inhibition at 10 µM [2] is reported as 92% and the tolerability [3] is reported as “well tolerated with no sign of adverse effects”. For the same compound, the “Grip strength, effect in words” value ([4]; 30 mg/kg, 12 weeks of age, vs R6/2 vehicle group) was “improvement in grip strength; also recorded: positive effect in improving grip strength; also recorded: significantly improved over the R6/2 vehicle group”, the “Grip Strength: p vs Vehicle-treated R6/2 mice” value [4, 9] was “ANOVA: p=0.612” and the “Grip Strength: p vs Vehicle-treated R6/2 mice” value [4, 10] was “ANOVA: p=0.612”. The “Grip Strength: p vs Vehicle-treated R6/2 mice” value [4, 11] was “p=0.860”, the “Grip Strength: direction of significant change vs Vehicle-treated R6/2 mice” value [4, 12] was “▲” and the “Grip Strength: p vs Vehicle-treated R6/2 mice” value [4, 12] was 0.006. The “Open Field Average Velocity: p vs Vehicle-treated R6/2 mice” value [5, 9] was “ANOVA: p=0.461”, the “Open Field Center Distance: p vs Vehicle-treated R6/2 mice” value [5, 9] was “ANOVA: p=0.701” and the “Open Field Rearing Rate in Center: p vs Vehicle-treated R6/2 mice” value [5, 9] was “ANOVA: p=0.341”. The “Open Field Total Distance: p vs Vehicle-treated R6/2 mice” value [5, 9] was “ANOVA: p=0.792”, the “Open Field Total Rearing Frequency: p vs Vehicle-treated R6/2 mice” value [5, 9] was “ANOVA: p=0.542” and the “Open Field Average Velocity: p vs Vehicle-treated R6/2 mice” value [5, 10] was “ANOVA: p=0.461”. The “Open Field Center Distance: p vs Vehicle-treated R6/2 mice” value [5, 10] was “ANOVA: p=0.701”, the “Open Field Rearing Rate in Center: p vs Vehicle-treated R6/2 mice” value [5, 10] was “ANOVA: p=0.341” and the “Open Field Total Distance: p vs Vehicle-treated R6/2 mice” value [5, 10] was “ANOVA: p=0.792”. For the same compound, the “Open Field Total Rearing Frequency: p vs Vehicle-treated R6/2 mice” value [5, 10] was “ANOVA: p=0.542”, the “Open Field Average Velocity: p vs Vehicle-treated R6/2 mice” value [5, 13] was “ANOVA: p=0.686” and the “Open Field Center Distance: p vs Vehicle-treated R6/2 mice” value [5, 13] was “ANOVA: p=0.305”. For the same compound, the “Open Field Rearing Rate in Center: p vs Vehicle-treated R6/2 mice” value [5, 13] was “ANOVA: p=0.594”, the “Open Field Total Distance: p vs Vehicle-treated R6/2 mice” value [5, 13] was “ANOVA: p=0.101” and the “Open Field Total Rearing Frequency: p vs Vehicle-treated R6/2 mice” value [5, 13] was “ANOVA: p=0.639”. For the same compound, the “Open Field Average Velocity: p vs Vehicle-treated R6/2 mice” value [5, 14] was “ANOVA: p=0.686”, the “Open Field Center Distance: p vs Vehicle-treated R6/2 mice” value [5, 14] was “ANOVA: p=0.305” and the “Open Field Rearing Rate in Center: p vs Vehicle-treated R6/2 mice” value [5, 14] was “ANOVA: p=0.594”. The “Open Field Total Distance: p vs Vehicle-treated R6/2 mice” value [5, 14] was “ANOVA: p=0.101”, the “Open Field Total Rearing Frequency: p vs Vehicle-treated R6/2 mice” value [5, 14] was “ANOVA: p=0.639” and the “Open Field Average Velocity: p vs Vehicle-treated R6/2 mice” value [5, 15] was “ANOVA: p=0.138”. The “Open Field Center Distance: p vs Vehicle-treated R6/2 mice” value [5, 15] was “ANOVA: p=0.693”, the “Open Field Rearing Rate in Center: p vs Vehicle-treated R6/2 mice” value [5, 15] was “ANOVA: p=0.519” and the “Open Field Total Distance: p vs Vehicle-treated R6/2 mice” value [5, 15] was “ANOVA: p=0.333”. For the same compound, the “Open Field Total Rearing Frequency: p vs Vehicle-treated R6/2 mice” value [5, 15] was “ANOVA: p=0.395”, the “Open Field Average Velocity: p vs Vehicle-treated R6/2 mice” value [5, 16] was “ANOVA: p=0.138” and the “Open Field Center Distance: p vs Vehicle-treated R6/2 mice” value [5, 16] was “ANOVA: p=0.693”. The “Open Field Rearing Rate in Center: p vs Vehicle-treated R6/2 mice” value [5, 16] was “ANOVA: p=0.519”, the “Open Field Total Distance: p vs Vehicle-treated R6/2 mice” value [5, 16] was “ANOVA: p=0.333” and the “Open Field Total Rearing Frequency: p vs Vehicle-treated R6/2 mice” value [5, 16] was “ANOVA: p=0.395”. The “Open Field Center Distance: p vs Vehicle-treated R6/2 mice” value [5, 11] was “p=0.112”, the “Open Field Total Distance: p vs Vehicle-treated R6/2 mice” value [5, 11] was “p=0.454” and the “Open Field Average Velocity: p vs Vehicle-treated R6/2 mice” value [5, 17] was “ANOVA: p=0.197”. For the same compound, the “Open Field Rearing Rate in Center: p vs Vehicle-treated R6/2 mice” value [5, 17] was “ANOVA: p=0.423”, the “Open Field Total Rearing Frequency: p vs Vehicle-treated R6/2 mice” value [5, 17] was “ANOVA: p=0.703” and the “Open Field Center Distance: direction of significant change vs Vehicle-treated R6/2 mice” value [5, 12] was “▼”. For the same compound, the “Open Field Center Distance: p vs Vehicle-treated R6/2 mice” value [5, 12] was 0.012, the “Open Field Total Distance: direction of significant change vs Vehicle-treated R6/2 mice” value [5, 12] was “▼” and the “Open Field Total Distance: p vs Vehicle-treated R6/2 mice” value [5, 12] was 0.016. The “Open Field Average Velocity: p vs Vehicle-treated R6/2 mice” value [5, 18] was “ANOVA: p=0.197”, the “Open Field Rearing Rate in Center: p vs Vehicle-treated R6/2 mice” value [5, 18] was “ANOVA: p=0.423” and the “Open Field Total Rearing Frequency: p vs Vehicle-treated R6/2 mice” value [5, 18] was “ANOVA: p=0.703”. For the same compound, the “Open field total distance traveled, distance in center, total rear frequency, average velocity, effect in words” value ([5]; chronic administration in R6/2 mice) was “no improvement”, the “performance in open field evaluation, effect in words” value ([5]; highest dose group, 12 weeks of age) was “modest but significant worsening of performance” and the “effect on R6/2 disease progression / disease-related phenotypes” value [6] was “did not ameliorate disease progression; also recorded: did not modify any R6/2 disease-related phenotypes”. For the same compound, the IC50 [7] was 0.07 µM and the IC50 [8] was 44 µM.
